Experimental data from ChEMBL document CHEMBL1128653, “Synthesis of 4-fluoroadenosine as an inhibitor of S-adenosyl-L-homocysteine hydrolase” (Bioorg Med Chem Lett, 1995).

B1: Adenosylhomocysteinase (Rattus norvegicus), P10760 (protein)
chain: MADKLPYKVADIGLAAWGRKALDIAENEMPGLMRMREMYSASKPLKGARIAGCLHMTVETAVLIETLVALGAEVRWSSCNIFSTQDHAAAAIAKAGIPVFAWKGETDEEYLWCIEQTLHFKDGPLNMILDDGGDLTNLIHTKHPQLLSGIRGISEETTTGVHNLYKMMANGILKVPAINVNDSVTKSKFDNLYGCRESLIDGIKRATDVMIAGKVAVVAGYGDVGKGCAQALRGFGARVIITEIDPINALQAAMEGYEVTTMDEACKEGNIFVTTTGCVDIILGRHFEQMKDDAIVCNIGHFDVEIDVKWLNENAVEKVNIKPQVDRYLLKNGHRIILLAEGRLVNLGCAMGHPSFVMSNSFTNQVMAQIELWTHPDKYPVGVHFLPKKLDEAVAEAHLGKLNVKLTKLTEKQAQYLGMPINGPFKPDHYRY

How the values were obtained:
[1] = target: T1, Adenosylhomocysteinase (Rattus norvegicus) (UniProt P10760); assay: Inhibitory activity against rat liver S-adenosyl-L-homocysteine hydrolase
T1 sequence (whole entry): B1 chain

[2] = target: T2, Adenosylhomocysteinase (Rattus norvegicus, UniProt P10760); assay: Inhibitory constant against rat liver S-adenosyl-L-homocysteine hydrolase
T2 sequence (P10760 whole entry): B1 chain

[3] = substrate: Nc1ncnc2c1ncn2C1O[C@](F)(CO)[C@@H](O)[C@H]1O; assay: Michaelis constant towards rat liver S-adenosyl-L-homocysteine hydrolase was calculated

Molecule	kinact [1] [min⁻¹]	Ki [2] [µM]	Km [3] [µM]
Nc1ncnc2c1ncn2C1O[C@](F)(CO)[C@@H](O)[C@H]1O (stereo partly drawn)	0.24	166	–
B1	–	–	1
